Target: recombinant human DPPI (Homo sapiens (Human), UniProt P53634)
Test: Inhibition of Human DPPI (Cathepsin C)
Assay type: biochemical
Conditions: substrate Gly-Arg-AMC 50 μM, MES buffer pH 6.0, fluorescence
Description: Inhibition of Human DPPI (Cathepsin C)
Materials: Microtiterplates (Optiplate-384 F) were purchased from PerkinElmer (Prod. No. 6007270). The substrate Gly-Arg-AMC was from Biotrend (Prod.-No. 808756 Custom peptide). Bovine serum albumin (BSA; Prod. No. A3059) and Dithiothreitol (DTT; Prod. No D0632) were from Sigma. TagZyme buffer was from Riedel-de-Haen (Prod.-No. 04269), NaCl was from Merck (Prod.-No. 1.06404.1000) and morpholinoethane sulfonic acid (MES), was from Serva (Prod.-No. 29834). The DPP1 inhibitor Gly-Phe-DMK was purchased from MP Biomedicals (Prod.-No. 03DK00625). The recombinant human DPPI was purchased from Prozymex. All other materials were of highest grade commercially available.
The following buffers were used: MES buffer: 25 mM MES, 50 mM NaCl, 5 mM DTT, adjusted to pH 6.0, containing 0.1% BSA; TAGZyme Buffer: 20 mM NaH2PO4, 150 mM NaCl adjusted to pH 6.0 with HCl
Assay conditions: The recombinant human DPPI was diluted in TAGZyme buffer to 1 U/ml (38.1 μg/ml, respectively), and then activated by mixing in a 1:2 ratio with a Cysteamine aqueous solution (2 mM) and incubating for 5 min at room temperature.
Five uL test compound (final concentration 0.1 nM to 100 μM) in aqua bidest (containing 4% DMSO, final DMSO concentration 1%) were mixed with 10 μL of DPPI in MES buffer (final concentration 0.0125 ng/μL) and incubated for 10 min. Then, 5 μL of substrate in MES buffer (final concentration 50 μM) were added. The microtiter plates were then incubated at room temperature for 30 min. Then, the reaction was stopped by adding 10 μL of Gly-Phe-DMK in MES-buffer (final concentration 1 μM). The fluorescence in the wells was determined using a Molecular Devices SpectraMax M5 Fluorescence Reader (Ex 360 nm, Em 460 nm) or an Envision Fluorescence Reader (Ex 355 nm, Em 460 nm).
Each assay microtiter plate contained wells with vehicle controls (1% DMSO in bidest+0.075% BSA) as reference for non-inhibited enzyme activity (100% Ctl; high values) and wells with inhibitor (Gly-Phe-DMK, in bidest+1% DMSO+0.075% BSA, final concentration 1 μM) as controls for background fluorescence (0% Ctl; low values).
The analysis of the data was performed by calculating the percentage of fluorescence in the presence of test compound in comparison to the fluorescence of the vehicle control after subtracting the background fluorescence using the following formula: (RFU(sample)−RFU(background))*100/(RFU(control)−RFU(background)) […]

recombinant human DPPI, sequence (P53634 231-394): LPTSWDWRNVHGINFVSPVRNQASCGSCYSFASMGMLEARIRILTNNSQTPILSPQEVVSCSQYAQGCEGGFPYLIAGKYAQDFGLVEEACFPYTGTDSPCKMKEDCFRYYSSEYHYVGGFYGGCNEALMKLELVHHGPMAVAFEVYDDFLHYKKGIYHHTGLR
recombinant human DPPI, sequence (P53634 395-463): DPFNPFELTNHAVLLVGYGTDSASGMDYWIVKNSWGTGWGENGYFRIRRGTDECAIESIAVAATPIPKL
recombinant human DPPI, sequence (P53634 25-134): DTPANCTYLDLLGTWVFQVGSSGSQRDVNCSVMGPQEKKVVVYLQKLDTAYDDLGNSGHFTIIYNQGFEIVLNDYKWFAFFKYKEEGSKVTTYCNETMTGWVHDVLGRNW

SMILES	Ki [nM]
CN1C(=O)Cc2ccc(-c3ccc(C[C@@H](C#N)NC(=O)[C@H]4N[C@@H]5CC[C@H]4C5)o3)cc21 [Example 5]	176
N#CC(Cc1cc2cc(Br)ccc2o1)NC(=O)[C@H]1N[C@@H]2CC[C@H]1C2 (stereo partly drawn) [Example 6]	64.1
N#Cc1ccc(-c2ccc3oc(CC(C#N)NC(=O)[C@H]4N[C@@H]5CC[C@H]4C5)cc3c2)cc1F (stereo partly drawn) [Example 7]	39.3
CN1C(=O)Cc2ccc(-c3ccc4oc(CC(C#N)NC(=O)[C@H]5N[C@@H]6CC[C@H]5C6)cc4c3)cc21 (stereo partly drawn) [Example 8]	104
N#CC(Cc1cc2cc(-c3ccccc3)ccc2o1)NC(=O)[C@H]1N[C@@H]2CC[C@H]1C2 (stereo partly drawn) [Example 9]	62
N#CC(Cc1cc2cc(-c3ccccc3)ccc2s1)NC(=O)[C@H]1N[C@@H]2CC[C@H]1C2 (stereo partly drawn) [Example 11]	72.8
CN1C(=O)Cc2ccc(-c3cnc(CC(C#N)NC(=O)[C@H]4N[C@@H]5CC[C@H]4C5)s3)cc21 (stereo partly drawn) [Example 12]	14.9
CN1C(=O)Cc2ccc(-c3csc(CC(C#N)NC(=O)[C@H]4N[C@@H]5CC[C@H]4C5)c3F)cc21 (stereo partly drawn) [Example 13]	61.7
CN1C(=O)Cc2ccc(-c3csc(CC(C#N)NC(=O)[C@H]4N[C@@H]5CC[C@H]4C5)c3)cc21 (stereo partly drawn) [Example 15]	41.9
N#C[C@H](Cc1ccc(-c2cnn(CC3CCOCC3)c2)s1)NC(=O)[C@H]1N[C@@H]2CC[C@H]1C2 [Example 18]	27
CN1CCC(c2ccc(C[C@@H](C#N)NC(=O)[C@H]3N[C@@H]4CC[C@H]3C4)s2)CC1 [Example 20]	37.9
CN1C(=O)Cc2ccc(-c3cc(F)c(CC(C#N)NC(=O)[C@H]4N[C@@H]5CC[C@H]4C5)s3)cc21 (stereo partly drawn) [Example 22]	2.2

The remaining lines, values ahead:

Ki [nM]	SMILES
13.7	N#Cc1ccc(-c2ccc(C[C@@H](C#N)NC(=O)[C@H]3N[C@@H]4CC[C@H]3C4)s2)cc1F [Example 1]
17.3	CS(=O)(=O)c1ccc(-c2ccc(C[C@@H](C#N)NC(=O)[C@H]3N[C@@H]4CC[C@H]3C4)s2)cc1 [Example 2]
3.2	CN1C(=O)Cc2ccc(-c3ccc(C[C@@H](C#N)NC(=O)[C@H]4N[C@@H]5CC[C@H]4C5)s3)cc21 [Example 3]
2.1	CN1C(=O)C(=O)c2ccc(-c3ccc(C[C@@H](C#N)NC(=O)[C@H]4N[C@@H]5CC[C@H]4C5)s3)cc21 [Example 4]
35.8	N#CC(Cc1cc2cc(Br)ccc2s1)NC(=O)[C@H]1N[C@@H]2CC[C@H]1C2 (stereo partly drawn) [Example 10]
13.4	CC(=O)c1ccc(-c2ccc(C[C@@H](C#N)NC(=O)[C@H]3N[C@@H]4CC[C@H]3C4)s2)s1 [Example 14]
17.1	CCn1cc(-c2ccc(C[C@@H](C#N)NC(=O)[C@H]3N[C@@H]4CC[C@H]3C4)s2)cn1 [Example 16]
4.2	N#C[C@H](Cc1ccc(-c2ccc3c(c2)NC(=O)C3)s1)NC(=O)[C@H]1N[C@@H]2CC[C@H]1C2 [Example 17]
2.9	CN1CCN(S(=O)(=O)c2ccc(-c3ccc(C[C@@H](C#N)NC(=O)[C@H]4N[C@@H]5CC[C@H]4C5)s3)cc2)CC1 [Example 23]
21.9	CC1(C)OC(=O)c2cc(-c3ccc(C[C@@H](C#N)NC(=O)[C@H]4N[C@@H]5CC[C@H]4C5)s3)ccc21 [Example 24]
4	CC1(C)OC(=O)c2ccc(-c3ccc(C[C@@H](C#N)NC(=O)[C@H]4N[C@@H]5CC[C@H]4C5)s3)cc21 [Example 25]
16.7	CS(=O)(=O)c1cccc(-c2ccc(C[C@@H](C#N)NC(=O)[C@H]3N[C@@H]4CC[C@H]3C4)s2)c1 [Example 26]

Source: patent US8871783B2, “Substituted 2-aza-bicyclo[2.2.1]heptane-3-carboxylic acid (cyano-methyl)-amides inhibitors of cathepsin C” (Boehringer Ingelheim International GmBh, priority 2013, dated 2014)
